These results are taken from US8273737B2, “Quinolizidinone M1 receptor positive allosteric modulators” (Merck Sharp & Dohme Corp., priority 2008, dated 2012).

Each structure is given as a SMILES string.

The assay deals with T1, acetylcholine muscarinic M1 receptor (Homo sapiens, UniProt P11229).
T1 construct: expressed in transfected cells; host or cells: CHOnfat (CHO cells, Geneticin-selected)
T1 sequence (P11229 1-460): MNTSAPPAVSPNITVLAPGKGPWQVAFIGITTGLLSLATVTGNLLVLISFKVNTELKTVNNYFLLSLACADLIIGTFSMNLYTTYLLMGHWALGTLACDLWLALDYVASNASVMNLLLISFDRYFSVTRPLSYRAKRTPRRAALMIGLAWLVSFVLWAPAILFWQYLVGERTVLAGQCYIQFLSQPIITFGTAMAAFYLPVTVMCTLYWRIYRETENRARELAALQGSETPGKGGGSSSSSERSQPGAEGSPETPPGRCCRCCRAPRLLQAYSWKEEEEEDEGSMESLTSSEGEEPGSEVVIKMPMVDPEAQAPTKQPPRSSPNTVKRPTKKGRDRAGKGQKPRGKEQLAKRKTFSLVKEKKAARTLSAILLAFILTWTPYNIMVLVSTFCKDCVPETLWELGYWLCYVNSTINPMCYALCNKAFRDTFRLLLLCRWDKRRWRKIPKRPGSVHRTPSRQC
Briefly: muscarinic FLIPR assay: potentiation of acetylcholine-stimulated intracellular Ca2+ in CHOnfat/hM1 cells. It counts as cell-based. To be noted: 4 min preincubation, then EC20 acetylcholine (3 nM final), read-out: IP Value (inflection point). The protocol: The assay studies the effect of one or several concentrations of test compounds on basal or acetylcholine-stimulated Ca^2+ levels using FLIPR.
Compounds are prepared and subjected to a preincubation period of 4 min. Thereafter, a single EC20 concentration of acetylcholine is added to each well (3 nM final). The intracellular Ca^2+ level of each sample is measured and compared to an acetylcholine control to determine any modulatory activity.
Cells: CHOnfat/hM1, hM2, hM3 or hM4 cells are plated 24 hr before the assay at a density of 18,000 cells/well (100 μL) in a 384 well plate. CHOnfat/hM1 and CHOnfat/hM3 Growth Medium: 90% DMEM (Hi Glucose); 10% HI FBS; 2 mM L-glutamine; 0.1 mM NEAA; Pen-Strep; and 1 mg/ml Geneticin, are added. For M2Gqi5CHOnfat and M4Gqi5CHOnfat cells, an additional 600 μg/ml hygromycin is added.
Equipment: 384 well plate, 120 μL addition plate; 96-well Whatman 2 ml Uniplate Incubator, 37° C., 5% CO2; Skatron EMBLA-384 Plate Washer; Multimek Pipetting System; Genesis Freedom 200 System; Mosquito System; Temo Nanolitre Pipetting System; and FLIPR^384 Fluorometric Imaging Plate Reader System are used.
Buffers. Assay Buffer: Hanks Balanced Salt Solution, with 20 mM Hepes, 2.5 mM Probenecid (Sigma P-8761) first dissolved in 1N aqueous NaOH, 1% Bovine Serum Albumin (Sigma A-9647). Dye Loading Buffer: Assay Buffer plus 1% Fetal Bovine Serum and Fluo-4AM/Pluronic Acid Mixture. 2 mM Fluo-4AM ester stock in DMSO (Molecular Probes F-14202) Concentration of 2 μM in buffer for a final concentration of 1 μM in Assay. 20% Pluronic Acid Solution stock, with a concentration of 0.04% in Buffer, 0.02% in Assay.
65 μL of 2 mM Fluo-4AM are mixed with 130 μL of 20% Pluronic Acid. The resulting solution and 650 μL FBS is added to the assay buffer for a total volume of 65 mL. Positive Controls: 4-Br-A23187: 10 mM in DMSO; final concentration 10 μM. Acetylcholine: 10 mM in water, working stock at both 20 μM and 30 μM in assay buffer, final concentration of 10 μM. This is used to check the maximum stimulation of the CHOK1/hM1 cells. 20 μM (2×) acetylcholine is added in the preincubation part of the assay, and the 30 μM (3×) stock is added in the second part. (EC20)Acetylcholine: 10 mM in water, working stock of 9 nM (3×), and final concentration in assay is 3 nM. This is used after the preincubation with test compounds. Addition of the EC20 Acetylcholine to each well with a test compound will ascertain any modulator activity. 24 wells contain 3 nM Acetylcholine alone as a control.
Determining Activity of Putative Compounds:
Screening Plate Compounds are titrated in 96-well plates (columns 2-11), 100% DMSO, started at a concentration of 15 mM (150× stock concentration), and 3-fold serial dilutions using Genesis Freedom200 System. Four 96-well plates are combined into a 384-well plate using Mosquito Nanolitre Pipetting System by transferring 1 μl of serial diluted compounds to each well, and 1 mM acetylcholine (100× stock concentration) were added as a control. Using Temo, 49 μl assay buffer is added to each well of the 384-well plate right before assay.
In a 96-well Whatman 2 ml Uniplate, 9 nM Acetylcholine (3×) is pipetted into wells corresponding to the screening compounds and into control wells. The 30 μM acetylcholine control (3×) is added into control wells and the 3× agonist plate is transferred into a 384-well plate.
Cells are washed three times with 100 μL of buffer, leaving 30 μL of buffer in each well. Using Multimek, 30 μL of Dye Loading Buffer is added into each well and incubated at 37° C., 5% CO2 for up to one hr.
After 60 min, the cells are washed three times with 100 μL of buffer, leaving 30 μL of buffer in each well. The cell plate, screening plate, and agonist addition plates are placed on the platform in the FLIPR and the door is closed. A signal test to check background fluorescence and basal fluorescence signal is performed. Laser intensity is adjusted if necessary. […]
`O=C(O)c1cc(CN2CCOCC2)c2ccccn2c1=O` [Example 179, 1-(morpholin-4-ylmethyl)-4-oxo-4H-quinolizine-3-carboxylic acid]: the EC50 is 6.9 µM. The value for `CS(=O)(=O)c1cc(N2CCN(Cc3cc(C(=O)O)c(=O)n4ccccc34)CC2)ccn1` [Example 154] was 1.65 µM; that for `O=C(O)c1cc(CN2CCN(c3ccccc3)C(=O)C2c2cccc(F)c2)c2ccccn2c1=O` (stereo not drawn) [Example 160, 1-{[2-(3-fluorophenyl)-3-oxo-4-phenylpiperazin-1-yl]methyl}-4-oxo-4H-quinolizine-3-carboxylic acid] was 0.119 µM; that for `C=Cc1cc(N2CCN(Cc3cc(C(=O)O)c(=O)n4ccccc34)CC2)ccn1` [Example 148, 4-Oxo-1-{[4-(2-vinylpyridin-4-yl)piperazine-1-yl]methyl}-4H-quinolizine-3-carboxylic acid] was 0.38 µM. The value for `O=C(O)c1cc(CN2CCN(c3ccc(Br)cc3)CC2)c2ccccn2c1=O` [Example 61] was 0.132 µM; that for `O=C(O)c1cc(CN2CCN(c3ccc(C(F)(F)F)cc3)CC2)c2ccccn2c1=O` [Example 1, 4-oxo-1-({4-[4-(trifluoromethyl)phenyl]piperazin-1-yl}methyl)-4H-quinolizine-3-carboxylic acid] was 0.27 µM.

As to `N#Cc1cc2cc(N3CCN(Cc4cc(C(=O)O)c(=O)n5ccccc45)CC3)ccc2o1` [Example 145, 1-{[4-(2-cyano-1-benzofuran-5-yl)piperazin-1-yl]methyl}-4-oxo-4H-quinolizine-3-carboxylic acid], the EC50 turned out to be 0.091 µM. Under `CSc1cc(N2CCN(Cc3cc(C(=O)O)c(=O)n4ccccc34)CC2)ccn1` [Example 153, 1-({4-[2-(methylthio)pyridine-4-yl]piperazine-1-yl}methyl)-4-oxo-4H-quinolizine-3-carboxylic acid] stands 0.64 µM. The value for `N#Cc1ccc(N2CCN(Cc3cc(C(=O)O)c(=O)n4ccccc34)CC2)cn1` [Example 147, 1-{[4-(6-cyanopyridin-3-yl)piperazin-1-yl]methyl}-4-oxo-4H-quinolizine-3-carboxylic acid] was 0.614 µM; that for `Cn1cc(N2CCN(Cc3cc(C(=O)O)c(=O)n4ccccc34)CC2)cn1` [Example 113] was 0.408 µM. As for `N#Cc1ccc(N2CCN(Cc3cc(C(=O)O)c(=O)n4ccccc34)CC2)cc1` [Example 146, 1-{[4-(4-cyanophenyl)piperazin-1-yl]methyl}-4-oxo-4H-quinolizine-3-carboxylic acid], the EC50 stood at 0.616 µM.

Turning to `CN1CCN(Cc2cc(C(=O)O)c(=O)n3ccccc23)C(c2cccc(F)c2)C1=O` (stereo not drawn) [Example 155, 1-{[2-(3-fluorophenyl)-4-methyl-3-oxopiperazin-1-yl]methyl}-4-oxo-4H-quinolizine-3-carboxylic acid], the EC50 was determined as 4.9 µM. The value for `O=C(O)c1cc(CN2CCN(c3ccc4sccc4c3)CC2)c2ccccn2c1=O` [Example 143] was 0.071 µM; that for `O=C(O)c1cc(CN2CCN(c3cc4ccccc4cn3)CC2)c2ccccn2c1=O` [Example 133] was 0.09 µM; that for `O=C(O)c1cc(CN2CCN(c3ccc4ncsc4c3)CC2)c2ccccn2c1=O` [Example 144] was 0.081 µM.
